In the kinase profiling compilation of Christmann-Franck et al. (2016):

Tests used:
Test in all cases: KINOMEscan competition binding
Conditions in all cases: compound 10.0 µM
[1] = tested on: PIK3CA (human), P42336 [I800L]
[2] = target: ROCK1 (human) (UniProt Q13464)
[3] = target: PRKACB (human) (UniProt P22694)
[4] = tested on: KIT (human), P10721 [D816V]
[5] = target: MAP4K3 (human) (UniProt Q8IVH8)
[6] = target: FYN (human) (UniProt P06241)
[7] = tested on: ABL1 (human), P00519 [E255K]
[8] = target: PHKG1 (human) (UniProt Q16816)
[9] = target: CSNK1G3 (human) (UniProt Q9Y6M4)
[10] = target: CDK14 (human) (UniProt O94921)
[11] = target: EPHB2 (human) (UniProt P29323)
[12] = target: JAK1 JH1 catalytic (human) (UniProt P23458)
[13] = target: STK32A (human) (UniProt Q8WU08)
[14] = target: PIM1 (human) (UniProt P11309)
[15] = tested on: KIT (human), P10721 [V559D]
[16] = target: SRC (human) (UniProt P12931)
[17] = target: LIMK2 (human) (UniProt P53671)
LIMK2 (human), sequence (P53671 whole entry, looked up): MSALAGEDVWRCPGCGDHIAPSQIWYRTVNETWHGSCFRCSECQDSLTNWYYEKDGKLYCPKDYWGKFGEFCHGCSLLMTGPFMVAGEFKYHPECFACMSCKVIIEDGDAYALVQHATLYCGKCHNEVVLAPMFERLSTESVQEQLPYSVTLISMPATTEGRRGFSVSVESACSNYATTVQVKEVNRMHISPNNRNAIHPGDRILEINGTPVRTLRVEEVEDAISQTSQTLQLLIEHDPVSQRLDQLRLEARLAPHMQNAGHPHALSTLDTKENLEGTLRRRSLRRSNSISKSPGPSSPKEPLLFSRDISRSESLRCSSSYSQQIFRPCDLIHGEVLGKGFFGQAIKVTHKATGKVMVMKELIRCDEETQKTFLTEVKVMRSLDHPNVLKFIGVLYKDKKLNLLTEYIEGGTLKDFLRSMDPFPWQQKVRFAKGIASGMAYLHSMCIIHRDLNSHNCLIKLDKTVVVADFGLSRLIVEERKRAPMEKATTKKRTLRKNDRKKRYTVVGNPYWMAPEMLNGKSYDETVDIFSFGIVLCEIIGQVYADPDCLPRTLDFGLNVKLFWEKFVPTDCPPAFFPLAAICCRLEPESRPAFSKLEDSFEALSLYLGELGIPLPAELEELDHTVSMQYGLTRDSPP

[18] = target: RIOK1 (human) (UniProt Q9BRS2)
[19] = tested on: EGFR (human), P00533 [G719S]
[20] = target: DYRK1B (human) (UniProt Q9Y463)
[21] = target: EPHA3 (human) (UniProt P29320)
[22] = target: NEK3 (human) (UniProt P51956)
[23] = tested on: MET (human), P08581 [Y1235D]
[24] = target: TBK1 (human) (UniProt Q9UHD2)
[25] = target: MARK3 (human) (UniProt P27448)
[26] = target: MAP3K7 (human) (UniProt O43318)
[27] = target: MUSK (human) (UniProt O15146)
[28] = target: AKT3 (human) (UniProt Q9Y243)
[29] = target: STK33 (human) (UniProt Q9BYT3)
[30] = target: NTRK2 (human) (UniProt Q16620)
[31] = target: BMPR2 (human) (UniProt Q13873)
[32] = target: DDR2 (human) (UniProt Q16832)
DDR2 (human), sequence (Q16832 whole entry, looked up): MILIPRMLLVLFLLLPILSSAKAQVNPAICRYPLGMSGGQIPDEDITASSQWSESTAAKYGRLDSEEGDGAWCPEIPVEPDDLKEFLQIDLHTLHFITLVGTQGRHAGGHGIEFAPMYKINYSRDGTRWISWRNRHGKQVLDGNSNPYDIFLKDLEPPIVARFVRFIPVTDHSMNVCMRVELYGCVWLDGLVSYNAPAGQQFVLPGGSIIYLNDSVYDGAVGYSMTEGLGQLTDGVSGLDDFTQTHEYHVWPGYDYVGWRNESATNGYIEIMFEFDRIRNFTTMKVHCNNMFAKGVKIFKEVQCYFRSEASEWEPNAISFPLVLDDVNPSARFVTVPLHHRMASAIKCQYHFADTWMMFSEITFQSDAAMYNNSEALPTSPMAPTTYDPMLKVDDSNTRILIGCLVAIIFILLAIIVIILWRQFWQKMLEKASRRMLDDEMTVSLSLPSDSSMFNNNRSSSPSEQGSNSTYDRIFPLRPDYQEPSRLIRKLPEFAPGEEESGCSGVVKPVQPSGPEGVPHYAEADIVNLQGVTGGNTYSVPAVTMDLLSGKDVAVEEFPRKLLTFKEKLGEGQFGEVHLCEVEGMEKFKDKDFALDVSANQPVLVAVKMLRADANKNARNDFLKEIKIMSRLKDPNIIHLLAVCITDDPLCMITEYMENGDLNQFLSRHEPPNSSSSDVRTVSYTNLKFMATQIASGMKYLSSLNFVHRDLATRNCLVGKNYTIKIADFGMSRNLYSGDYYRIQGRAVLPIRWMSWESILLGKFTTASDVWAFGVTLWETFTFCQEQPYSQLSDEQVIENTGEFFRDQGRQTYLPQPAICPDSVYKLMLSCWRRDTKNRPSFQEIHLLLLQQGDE

[33] = target: CDC42BPA (human) (UniProt Q5VT25)
[34] = target: MAP2K5 (human) (UniProt Q13163)
[35] = target: MAP3K10 (human) (UniProt Q02779)
[36] = target: ACVRL1 (human) (UniProt P37023)
[37] = target: STK25 (human) (UniProt O00506)
[38] = tested on: FLT3 (human), P36888 [R834Q]
[39] = target: PLK2 (human) (UniProt Q9NYY3)
[40] = target: PAK4 (human) (UniProt O96013)
[41] = tested on: PIK3CA (human), P42336 [H1047L]
PIK3CA (human), P42336 [H1047L], sequence (P42336 whole entry H1047L, looked up): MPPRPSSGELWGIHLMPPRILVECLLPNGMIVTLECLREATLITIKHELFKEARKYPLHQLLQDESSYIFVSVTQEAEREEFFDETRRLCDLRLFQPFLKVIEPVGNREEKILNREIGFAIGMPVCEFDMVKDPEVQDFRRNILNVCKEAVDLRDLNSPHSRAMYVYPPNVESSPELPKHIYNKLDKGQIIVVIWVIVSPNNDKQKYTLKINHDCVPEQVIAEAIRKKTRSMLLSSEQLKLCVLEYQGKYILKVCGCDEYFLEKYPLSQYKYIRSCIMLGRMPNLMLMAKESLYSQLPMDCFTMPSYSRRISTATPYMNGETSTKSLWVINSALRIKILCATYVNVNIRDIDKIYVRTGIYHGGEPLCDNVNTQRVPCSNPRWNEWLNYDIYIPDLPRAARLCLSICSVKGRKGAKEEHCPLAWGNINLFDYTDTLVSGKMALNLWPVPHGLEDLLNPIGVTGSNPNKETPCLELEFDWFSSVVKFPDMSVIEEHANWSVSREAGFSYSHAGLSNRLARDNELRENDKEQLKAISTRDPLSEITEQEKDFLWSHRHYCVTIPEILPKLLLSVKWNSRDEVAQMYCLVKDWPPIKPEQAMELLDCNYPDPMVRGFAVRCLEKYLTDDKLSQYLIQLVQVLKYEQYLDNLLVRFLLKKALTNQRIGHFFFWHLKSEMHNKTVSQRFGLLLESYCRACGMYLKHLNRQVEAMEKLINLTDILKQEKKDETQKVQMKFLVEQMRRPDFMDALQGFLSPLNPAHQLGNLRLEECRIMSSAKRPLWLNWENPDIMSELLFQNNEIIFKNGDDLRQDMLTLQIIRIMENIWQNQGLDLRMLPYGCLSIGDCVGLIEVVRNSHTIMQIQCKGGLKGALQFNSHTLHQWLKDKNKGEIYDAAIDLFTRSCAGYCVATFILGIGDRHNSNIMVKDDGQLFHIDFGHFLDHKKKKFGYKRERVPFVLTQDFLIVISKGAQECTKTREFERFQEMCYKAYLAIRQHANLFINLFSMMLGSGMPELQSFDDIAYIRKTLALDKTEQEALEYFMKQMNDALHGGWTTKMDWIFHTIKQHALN

ABL1 (human), P00519 [E255K], sequence (P00519 whole entry E255K, looked up): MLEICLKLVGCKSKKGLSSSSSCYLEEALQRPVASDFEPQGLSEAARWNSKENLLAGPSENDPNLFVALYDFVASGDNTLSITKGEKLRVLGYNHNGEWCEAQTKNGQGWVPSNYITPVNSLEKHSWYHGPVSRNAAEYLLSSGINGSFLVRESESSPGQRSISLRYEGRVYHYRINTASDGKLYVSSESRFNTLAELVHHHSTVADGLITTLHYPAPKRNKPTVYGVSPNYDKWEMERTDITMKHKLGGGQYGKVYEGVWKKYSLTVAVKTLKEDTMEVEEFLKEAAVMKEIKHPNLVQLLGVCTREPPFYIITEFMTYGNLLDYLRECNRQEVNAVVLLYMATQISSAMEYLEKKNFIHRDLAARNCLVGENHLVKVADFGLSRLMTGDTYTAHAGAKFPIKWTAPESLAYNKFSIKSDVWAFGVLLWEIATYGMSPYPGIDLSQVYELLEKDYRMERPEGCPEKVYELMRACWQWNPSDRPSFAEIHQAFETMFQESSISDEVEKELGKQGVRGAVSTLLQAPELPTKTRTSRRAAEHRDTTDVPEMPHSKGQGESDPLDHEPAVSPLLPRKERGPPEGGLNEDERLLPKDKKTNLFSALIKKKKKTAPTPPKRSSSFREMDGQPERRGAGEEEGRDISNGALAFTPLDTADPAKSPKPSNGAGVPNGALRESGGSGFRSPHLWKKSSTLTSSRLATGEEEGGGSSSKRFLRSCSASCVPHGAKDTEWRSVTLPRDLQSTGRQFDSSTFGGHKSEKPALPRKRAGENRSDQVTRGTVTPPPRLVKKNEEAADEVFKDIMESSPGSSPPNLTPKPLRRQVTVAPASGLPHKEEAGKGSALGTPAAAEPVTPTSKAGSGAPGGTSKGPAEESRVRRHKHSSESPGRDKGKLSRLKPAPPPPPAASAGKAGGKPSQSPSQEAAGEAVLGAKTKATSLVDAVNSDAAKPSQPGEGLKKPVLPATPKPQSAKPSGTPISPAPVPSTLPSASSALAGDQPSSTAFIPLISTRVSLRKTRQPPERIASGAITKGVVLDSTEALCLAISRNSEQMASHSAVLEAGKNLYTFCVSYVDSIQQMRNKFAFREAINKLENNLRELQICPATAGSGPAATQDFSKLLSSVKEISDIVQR
ROCK1 (human), sequence (Q13464 whole entry, looked up): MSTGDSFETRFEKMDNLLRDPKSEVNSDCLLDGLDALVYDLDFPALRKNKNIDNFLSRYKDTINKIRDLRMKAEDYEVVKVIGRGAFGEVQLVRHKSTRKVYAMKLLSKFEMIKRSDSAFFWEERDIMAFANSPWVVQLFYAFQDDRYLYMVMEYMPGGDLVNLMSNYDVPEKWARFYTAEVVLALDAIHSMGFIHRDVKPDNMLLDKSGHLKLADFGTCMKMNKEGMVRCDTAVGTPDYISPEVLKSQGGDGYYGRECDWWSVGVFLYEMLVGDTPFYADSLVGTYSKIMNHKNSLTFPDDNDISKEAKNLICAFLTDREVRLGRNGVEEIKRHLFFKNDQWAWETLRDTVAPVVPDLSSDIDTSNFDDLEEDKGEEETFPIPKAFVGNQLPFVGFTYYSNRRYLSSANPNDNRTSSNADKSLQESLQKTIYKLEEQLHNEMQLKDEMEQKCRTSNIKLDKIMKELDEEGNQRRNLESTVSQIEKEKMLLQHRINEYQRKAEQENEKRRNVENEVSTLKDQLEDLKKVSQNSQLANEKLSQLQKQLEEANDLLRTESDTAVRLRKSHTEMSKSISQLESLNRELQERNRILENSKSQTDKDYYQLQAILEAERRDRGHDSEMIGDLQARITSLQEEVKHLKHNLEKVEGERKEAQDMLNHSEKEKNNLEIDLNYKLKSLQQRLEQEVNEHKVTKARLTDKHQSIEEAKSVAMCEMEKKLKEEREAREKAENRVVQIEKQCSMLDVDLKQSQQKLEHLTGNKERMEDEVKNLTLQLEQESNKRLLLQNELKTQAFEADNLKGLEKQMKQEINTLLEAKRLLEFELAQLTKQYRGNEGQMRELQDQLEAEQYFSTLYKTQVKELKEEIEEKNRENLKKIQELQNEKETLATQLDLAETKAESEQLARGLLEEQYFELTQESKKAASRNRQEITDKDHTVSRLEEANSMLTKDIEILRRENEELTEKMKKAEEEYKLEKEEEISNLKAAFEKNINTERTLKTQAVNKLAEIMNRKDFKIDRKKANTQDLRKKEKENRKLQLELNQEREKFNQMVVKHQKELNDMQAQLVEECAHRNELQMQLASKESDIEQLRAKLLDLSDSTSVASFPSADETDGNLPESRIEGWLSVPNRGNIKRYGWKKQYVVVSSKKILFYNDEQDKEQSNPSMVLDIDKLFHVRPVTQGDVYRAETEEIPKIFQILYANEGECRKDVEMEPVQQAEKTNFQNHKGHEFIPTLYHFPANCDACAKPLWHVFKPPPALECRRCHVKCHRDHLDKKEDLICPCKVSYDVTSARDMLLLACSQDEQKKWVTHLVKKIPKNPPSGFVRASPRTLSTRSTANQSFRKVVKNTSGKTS
PIK3CA (human), P42336 [I800L], sequence (P42336 whole entry I800L, looked up): as the sequence (P42336 whole entry H1047L, looked up) above, with I800L, L1047H counted along it

Structure (SMILES): COc1cc(C(=O)N2CCC(N3CCN(C)CC3)CC2)ccc1Nc1ncc2c(n1)N(C)c1ccccc1C(=O)N2C
- kinase still bound, per cent of control [1]: 38%
- kinase still bound, per cent of control [2]: 100%
- residual activity [3]: 100%
- kinase still bound, per cent of control [4]: 72%
- kinase still bound, per cent of control [5]: 71%
- kinase still bound, per cent of control [6]: 100%
- kinase still bound, per cent of control [7]: 80%
- kinase still bound, per cent of control [8]: 54%
- kinase still bound, per cent of control [9]: 93%
- residual activity [10]: 81%
- kinase still bound, per cent of control [11]: 100%
- kinase still bound, per cent of control [12]: 100%
- kinase still bound, per cent of control [13]: 100%
- kinase still bound, per cent of control [14]: 100%
- kinase still bound, per cent of control [15]: 100%
- kinase still bound, per cent of control [16]: 100%
- kinase still bound, per cent of control [17]: 100%
- kinase still bound, per cent of control [18]: 100%
- kinase still bound, per cent of control [19]: 86%
- kinase still bound, per cent of control [20]: 94%
- kinase still bound, per cent of control [21]: 100%
- kinase still bound, per cent of control [22]: 100%
- kinase still bound, per cent of control [23]: 100%
- kinase still bound, per cent of control [24]: 97%
- kinase still bound, per cent of control [25]: 98%
- kinase still bound, per cent of control [26]: 98%
- kinase still bound, per cent of control [27]: 99%
- kinase still bound, per cent of control [28]: 100%
- kinase still bound, per cent of control [29]: 10%
- kinase still bound, per cent of control [30]: 100%
- kinase still bound, per cent of control [31]: 100%
- kinase still bound, per cent of control [32]: 100%
- kinase still bound, per cent of control [33]: 100%
- kinase still bound, per cent of control [34]: 85%
- kinase still bound, per cent of control [35]: 100%
- kinase still bound, per cent of control [36]: 100%
- kinase still bound, per cent of control [37]: 68%
- kinase still bound, per cent of control [38]: 100%
- kinase still bound, per cent of control [39]: 100%
- kinase still bound, per cent of control [40]: 94%
- kinase still bound, per cent of control [41]: 20%
